Data: patent US10344025B2, “GLS1 inhibitors for treating disease” (Board of Regents, The University of Texas System, priority 2014, dated 2019)
pEC50, pIC50: −log10 of the molar value.

Legend:
[1] = target: purified recombinant human GAC (GLS1) (Homo sapiens (Human), UniProt O94925); assay: GLS1 Enzymatic Activity Assay (dual-coupled enzymatic assay, resorufin/Amplex UltraRed readout); type: biochemical;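 further: glutamate from GAC coupled via glutamate oxidase and peroxidase to resorufin, read as fluorescence (ex 530, em 590 nm) kinetically or at 20 min, four-parameter logistic IC50 fit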
[2] = system: A549 cells; assay: Proliferation Assay (A549 viability, Cell Titer Fluor, 72 hours); type: cell-based; settings: Homo sapiens, A549, 72 h
In short: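 Cell Titer Fluor fluorescence after 72 h compound treatment (0.5% DMSO, 37 °C, 5% CO2) of A549 cells plated 24 h earlier at 1000/well. Four-parameter logistic fitting gave IC50.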

Sequence of purified recombinant human GAC (GLS1) (O94925 other isoform, or with tags, fused parts or gaps): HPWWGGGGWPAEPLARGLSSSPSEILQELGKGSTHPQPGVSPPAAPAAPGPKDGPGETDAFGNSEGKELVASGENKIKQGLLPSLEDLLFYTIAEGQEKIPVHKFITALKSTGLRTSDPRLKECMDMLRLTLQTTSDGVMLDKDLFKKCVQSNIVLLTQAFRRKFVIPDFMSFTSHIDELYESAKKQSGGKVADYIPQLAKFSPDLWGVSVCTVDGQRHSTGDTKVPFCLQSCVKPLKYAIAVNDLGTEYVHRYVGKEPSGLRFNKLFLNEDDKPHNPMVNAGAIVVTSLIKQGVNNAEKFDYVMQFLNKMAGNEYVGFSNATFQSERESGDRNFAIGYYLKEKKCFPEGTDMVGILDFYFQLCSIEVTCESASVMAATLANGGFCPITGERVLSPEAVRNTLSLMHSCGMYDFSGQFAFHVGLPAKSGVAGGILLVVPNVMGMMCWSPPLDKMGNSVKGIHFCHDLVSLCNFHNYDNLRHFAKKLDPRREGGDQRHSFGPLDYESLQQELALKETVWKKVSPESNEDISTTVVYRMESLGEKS

Compound | pIC50 [1] | pEC50 [2]
O=C(NCc1cccc(OC(F)(F)F)c1)c1cn(CCC(F)Cn2cc(C(=O)NCc3ncccc3F)nn2)nn1 (centres unmarked) [Example 429, 1-{2-fluoro-4-[4-({[3-(trifluoromethoxy)phenyl]methyl}carbamoyl)-1H-1,2,3-triazol-1-yl]butyl}-N-[(3-fluoropyridin-2-yl)methyl]-1H-1,2,3-triazole-4-carboxamide] | > 7.00 | 6.30 to 7.00
O=C(NCc1cc(C(F)(F)F)ccn1)c1cn(CCC(F)Cn2cc(C(=O)NCc3cc(C(F)(F)F)ccn3)nn2)nn1 (centres unmarked) [Example 470, 1-{2-fluoro-4-[4-({[4-(trifluoromethyl)pyridin-2-yl]methyl}carbamoyl)-1H-1,2,3-triazol-1-yl]butyl}-N-{[4-(trifluoromethyl)pyridin-2-yl]methyl}-1H-1,2,3-triazole-4-carboxamide] | > 7.00 | > 7.00
O=C(CN1CC(F)C1)Nc1cn(CC(F)CCn2cc(C(=O)NCc3ccccn3)nn2)nn1 (centres unmarked) [Example 389, 1-(3-fluoro-4-{4-[2-(3-fluoroazetidin-1-yl)acetamido]-1H-1,2,3-triazol-1-yl}butyl)-N-(pyridin-2-ylmethyl)-1H-1,2,3-triazole-4-carboxamide] | 5.30 to 6.30 | < 5.30
O=C(NCc1cc(C(F)(F)F)ccn1)c1cn(CCCCn2cc(C(=O)NCc3cc(F)ccc3Cl)nn2)nn1 [Example 107, 1-[4-(4-{[(2-chloro-5-fluorophenyl)methyl]carbamoyl}-1H-1,2,3-triazol-1-yl)butyl]-N-{[4-(trifluoromethyl)pyridin-2-yl]methyl}-1H-1,2,3-triazole-4-carboxamide] | > 7.00 | > 7.00
O=C(Cc1cccc(OC(F)(F)F)c1)Nc1nnc(CCC(F)Cn2cc(C(=O)NCc3cc(C(F)(F)F)ccn3)nn2)s1 (centres unmarked) [Example 495, 1-[2-fluoro-4-(5-{2-[3-(trifluoromethoxy)phenyl]acetamido}-1,3,4-thiadiazol-2-yl)butyl]-N-{[4-(trifluoromethyl)pyridin-2-yl]methyl}-1H-1,2,3-triazole-4-carboxamide] | > 7.00 | > 7.00
O=C(Cc1cccc(F)n1)Nc1nnc(CCC(F)Cn2cc(C(=O)NCc3cc(OC(F)(F)F)ccc3F)nn2)s1 (centres unmarked) [Example 592, 1-(2-fluoro-4-(5-(2-(6-fluoropyridin-2-yl)acetamido)-1,3,4-thiadiazol-2-yl)butyl)-N-(2-fluoro-5-(trifluoromethoxy)benzyl)-1H-1,2,3-triazole-4-carboxamide] | > 7.00 | > 7.00
Cc1ccc(CC(=O)Nc2cn(CCC(F)Cn3cc(C(=O)NCc4cc(OC(F)(F)F)ccc4F)nn3)nn2)cn1 (centres unmarked) [Example 405, 1-(2-fluoro-4-{4-[2-(6-methylpyridin-3-yl)acetamido]-1H-1,2,3-triazol-1-yl}butyl)-N-{[2-fluoro-5-(trifluoromethoxy)phenyl]methyl}-1H-1,2,3-triazole-4-carboxamide] | > 7.00 | > 7.00
Cc1ccc(CC(=O)Nc2cn(CC(F)CCn3cc(C(=O)NCc4ncccc4F)nn3)nn2)cn1 (centres unmarked) [Example 345, 1-(3-fluoro-4-{4-[2-(6-methylpyridin-3-yl)acetamido]-1H-1,2,3-triazol-1-yl}butyl)-N-[(3-fluoropyridin-2-yl)methyl]-1H-1,2,3-triazole-4-carboxamide] | 6.30 to 7.00 | < 5.30
CC1(C)Oc2ccc(CNC(=O)c3cn(CCCCn4cc(C(=O)NCc5cc(C(F)(F)F)ccn5)nn4)nn3)cc2O1 [Example 137, 1-[4-(4-{[(2,2-dimethyl-2H-1,3-benzodioxol-5-yl)methyl]carbamoyl}-1H-1,2,3-triazol-1-yl)butyl]-N-{[4-(trifluoromethyl)pyridin-2-yl]methyl}-1H-1,2,3-triazole-4-carboxamide] | > 7.00 | > 7.00
CNC(=O)c1cn(CCC(F)Cn2cc(C(=O)NCc3ccccc3)nn2)nn1 (centres unmarked) [Example 165, 1-{4-[4-(benzylcarbamoyl)-1H-1,2,3-triazol-1-yl]-3-fluorobutyl}-N-methyl-1H-1,2,3-triazole-4-carboxamide] | 6.30 to 7.00 | 5.30 to 6.30
CNC(=O)c1nnc(CCCCc2ccc(NC(=O)Cc3cccc(OC(F)(F)F)c3)nn2)s1 [Example 572, N-methyl-5-(4-(6-(2-(3-(trifluoromethoxy)phenyl)acetamido)pyridazin-3-yl)butyl)-1,3,4-thiadiazole-2-carboxamide] | > 7.00 | 6.30 to 7.00
CNC(=O)c1nnc(CCCCn2cc(C(=O)NCc3cc(C(F)(F)F)ccn3)nn2)s1 [Example 603, N-methyl-5-(4-(4-(((4-(trifluoromethyl)pyridin-2-yl)methyl)carbamoyl)-1H-1,2,3-triazol-1-yl)butyl)-1,3,4-thiadiazole-2-carboxamide] | 5.30 to 6.30 | < 5.30
CNC(=O)c1nnc(CCC(F)Cn2cc(C(=O)NCc3cc(C(F)(F)F)ccn3)nn2)s1 (centres unmarked) [Example 503, 5-{3-fluoro-4-[4-({[4-(trifluoromethyl)pyridin-2-yl]methyl}carbamoyl)-1H-1,2,3-triazol-1-yl]butyl}-N-methyl-1,3,4-thiadiazole-2-carboxamide] | 6.30 to 7.00 | 5.30 to 6.30
COc1ccc(CNC(=O)c2cn(CCCCc3nnc(NC(=O)Cc4cccc(OC(F)(F)F)c4)s3)nn2)c(OC)c1 [Example 22, N-[(2,4-dimethoxyphenyl)methyl]-1-[4-(5-{2-[3-(trifluoromethoxy)phenyl]acetamido}-1,3,4-thiadiazol-2-yl)butyl]-1H-1,2,3-triazole-4-carboxamide] | > 7.00 | 6.30 to 7.00
CNC(=O)c1cn(CC(F)CCc2nnc(C(=O)NCc3cccc(OC(F)(F)F)c3)s2)nn1 (centres unmarked) [Example 561, 5-{3-fluoro-4-[4-(methylcarbamoyl)-1H-1,2,3-triazol-1-yl]butyl}-N-{[3-(trifluoromethoxy)phenyl]methyl}-1,3,4-thiadiazole-2-carboxamide] | > 7.00 | 6.30 to 7.00
O=C(Cc1cc(-c2cccc(OC(F)(F)F)c2)ccn1)Nc1ccc(CCCCn2cc(C(=O)NCCO)nn2)nn1 [Example 246, N-(2-hydroxyethyl)-1-(4-(6-(2-(4-(3-(trifluoromethoxy)phenyl)pyridin-2-yl)acetamido)pyridazin-3-yl)butyl)-1H-1,2,3-triazole-4-carboxamide] | > 7.00 | > 7.00
O=C(NCc1cc(C(F)(F)F)ccn1)c1cn(CCCCn2cc(C(=O)N[C@@H](CO)c3ccccc3)nn2)nn1 [Example 100, 1-[4-(4-{[(1R)-2-hydroxy-1-phenylethyl]carbamoyl}-1H-1,2,3-triazol-1-yl)butyl]-N-{[4-(trifluoromethyl)pyridin-2-yl]methyl}-1H-1,2,3-triazole-4-carboxamide] | 5.30 to 6.30 | < 5.30
Cc1ccc(CNC(=O)c2cn(CC(F)CCn3cc(C(=O)NCc4cc(OC(F)(F)F)ccc4F)nn3)nn2)cn1 (centres unmarked) [Example 368, 1-{2-fluoro-4-[4-({[2-fluoro-5-(trifluoromethoxy)phenyl]methyl}carbamoyl)-1H-1,2,3-triazol-1-yl]butyl}-N-[(6-methylpyridin-3-yl)methyl]-1H-1,2,3-triazole-4-carboxamide] | > 7.00 | > 7.00
CC(C)(C)OC(=O)NCc1cccc(CNC(=O)c2cn(CCCCn3cc(C(=O)NCc4cc(C(F)(F)F)ccn4)nn3)nn2)c1 [Example 110, tert-butyl N-[(3-{[(1-{4-[4-({[4-(trifluoromethyl)pyridin-2-yl]methyl}carbamoyl)-1H-1,2,3-triazol-1-yl]butyl}-1H-1,2,3-triazol-4-yl)formamido]methyl}phenyl)methyl]carbamate] | > 7.00 | > 7.00
O=C(NCc1cncc(C(F)(F)F)c1)c1cn(CC(F)CCc2nnc(C(=O)NCc3cccc(C(F)(F)F)n3)s2)nn1 (centres unmarked) [Example 490, 5-{3-fluoro-4-[4-({[5-(trifluoromethyl)pyridin-3-yl]methyl}carbamoyl)-1H-1,2,3-triazol-1-yl]butyl}-N-{[6-(trifluoromethyl)pyridin-2-yl]methyl}-1,3,4-thiadiazole-2-carboxamide] | > 7.00 | > 7.00
Cc1ccc(CNC(=O)c2cn(CC(F)CCc3nnc(C(=O)NCc4cc(OC(F)(F)F)ccc4F)s3)nn2)cn1 (centres unmarked) [Example 447, 5-[3-fluoro-4-(4-{[(6-methylpyridin-3-yl)methyl]carbamoyl}-1H-1,2,3-triazol-1-yl)butyl]-N-{[2-fluoro-5-(trifluoromethoxy)phenyl]methyl}-1,3,4-thiadiazole-2-carboxamide] | > 7.00 | > 7.00
CNC(=O)c1nnc(CCCCc2ccc(NC(=O)Cc3cc(OC(F)(F)F)ccc3F)nn2)s1 [Example 598, 5-(4-(6-(2-(2-fluoro-5-(trifluoromethoxy)phenyl)acetamido)pyridazin-3-yl)butyl)-N-methyl-1,3,4-thiadiazole-2-carboxamide] | > 7.00 | > 7.00
O=C(Cc1ccccn1)Nc1cn(CCCCn2cc(C(=O)NCc3cccnc3)nn2)nn1 [Example 321, 1-(4-{4-[2-(pyridin-2-yl)acetamido]-1H-1,2,3-triazol-1-yl}butyl)-N-(pyridin-3-ylmethyl)-1H-1,2,3-triazole-4-carboxamide] | 5.30 to 6.30 | 5.30 to 6.30
CNC(=O)c1nnc(CCC(F)Cn2cc(C(=O)NCc3cncc(C(F)(F)F)c3)nn2)s1 (centres unmarked) [Example 507, 5-{3-fluoro-4-[4-({[5-(trifluoromethyl)pyridin-3-yl]methyl}carbamoyl)-1H-1,2,3-triazol-1-yl]butyl}-N-methyl-1,3,4-thiadiazole-2-carboxamide] | 6.30 to 7.00 | 6.30 to 7.00
O=C(NCc1cccc(C(F)(F)F)c1)c1cn(CCC(F)Cn2cc(C(=O)NCc3cc(C(F)(F)F)ccn3)nn2)nn1 (centres unmarked) [Example 455, 1-{2-fluoro-4-[4-({[3-(trifluoromethyl)phenyl]methyl}carbamoyl)-1H-1,2,3-triazol-1-yl]butyl}-N-{[4-(trifluoromethyl)pyridin-2-yl]methyl}-1H-1,2,3-triazole-4-carboxamide] | > 7.00 | > 7.00
